Measurements reported in ChEMBL document CHEMBL4354782, “Quinolone antibiotics” (Medchemcomm, 2019).
Converted amounts (≈) assume the structure as drawn.

Columns and labels:
Klebsiella = assay: Antibacterial activity against Klebsiella by agar diffusion method; assay type: functional
Bacteroides fragilis = assay: Antibacterial activity against Bacteroides fragilis by agar diffusion method; assay type: functional
Streptococcus pyogenes = assay: Antibacterial activity against Streptococcus pyogenes by agar diffusion method; assay type: functional
[1] = AUC in human at 0.75 g, po bid; details: in vivo
[2] = Cmax in human at 0.75 g, po bid; details: in vivo
Haemophilus influenzae = assay: Antibacterial activity against Haemophilus influenzae with horse blood by agar diffusion method; assay type: functional
Escherichia coli = assay: Antibacterial activity against Escherichia coli by agar diffusion method; assay type: functional
Enterococcus = assay: Antibacterial activity against Enterococcus by agar diffusion method; assay type: functional
[3] = Protein binding in human at 0.2 g, po bid; assay type: ADME, organism-based; details: in vivo, read-out: PB (converted)
[4] = Half life in human at 0.2 g, po bid; assay type: ADME, organism-based; details: in vivo
Pseudomonas aeruginosa = assay: Antibacterial activity against Pseudomonas aeruginosa by agar diffusion method; assay type: functional
Homo sapiens = organism: Homo sapiens; assay: Phototoxicity in human; assay type: organism-based; details: in vivo
[5] = AUC in human at 0.2 g, po bid; assay type: ADME, organism-based; details: in vivo
Streptococcus pneumoniae = assay: Antibacterial activity against Streptococcus pneumoniae by agar diffusion method; assay type: functional
Staphylococcus aureus = assay: Antibacterial activity against Staphylococcus aureus by agar diffusion method; assay type: functional
Clostridium perfringens = assay: microbe, parasite or virus in culture
[6] = Cmax in human at 0.2 g, po bid; assay type: ADME, organism-based; set-up: dose 0.2 g, route oral; details: in vivo
[7] = Half life in human at 0.6 g, po; assay type: ADME; details: in vivo
[8] = Protein binding in human at 0.6 g, po; assay type: ADME; details: in vivo, read-out: PB (converted)
[9] = AUC in human at 0.6 g, po; assay type: ADME; details: in vivo
[10] = Cmax in human at 0.6 g, po; assay type: ADME; set-up: dose 0.6 g, route oral; details: in vivo
[11] = Half life in human at 0.32 g, po; assay type: ADME; details: in vivo
[12] = Cmax in human at 0.32 g, po; assay type: ADME; set-up: dose 0.32 g, route oral; details: in vivo
[13] = AUC in human at 0.32 g, po; assay type: ADME; details: in vivo
[14] = Protein binding in human at 0.32 g, po; assay type: ADME; details: in vivo, read-out: PB (converted)
[15] = Toxicity in human assessed as hepatic eosinophilia effect
[16] = Toxicity in human assessed as arthralgia effect
[17] = Cmax in human at 0.4 g, po; assay type: ADME; set-up: dose 0.4 g, route oral; details: in vivo
[18] = AUC in human at 0.4 g, po; assay type: ADME; details: in vivo
[19] = Toxicity in human assessed as gastrointestinal effect
[20] = Half life in human at 0.4 g, po; assay type: ADME; details: in vivo
[21] = Protein binding in human at 0.4 g, po; assay type: ADME; details: in vivo, read-out: PB
[22] = Cardiotoxicity in human QTc prolongation; assay type: toxicity
[23] = Toxicity in human assessed as CNS effect by measuring alteration in mentation
[24] = Cmax in human at 0.4 g, po by HPLC analysis; assay type: ADME, organism-based; set-up: dose 0.4 g, route oral; details: in vivo
[25] = AUC in human at 0.4 g, po by HPLC analysis; assay type: ADME, organism-based; details: in vivo
[26] = Half life in human at 1 g, po administered for 4 times; assay type: ADME, organism-based; details: in vivo
[27] = Toxicity in human assessed as thrombocytopenia
[28] = Haemolytic activity in human; assay type: ADME, organism-based; details: in vivo, read-out: Activity
[29] = Toxicity in human assessed as renal failure
[30] = Toxicity in human assessed as CNS effect by measuring dizziness
[31] = AUC in human at 0.3 g, po; assay type: ADME; details: in vivo
[32] = Cmax in human at 0.3 g, po; assay type: ADME; set-up: dose 0.3 g, route oral; details: in vivo

| SMILES | MIC90 (Klebsiella) | MIC90 (Bacteroides fragilis) | MIC90 (Streptococcus pyogenes) | MIC90 (Haemophilus influenzae) | MIC90 (Escherichia coli) | MIC90 (Enterococcus) | MIC90 (Pseudomonas aeruginosa) | MIC90 (Streptococcus pneumoniae) | MIC90 (Staphylococcus aureus) | MIC90 (Clostridium perfringens) | also measured |
| --- | --- | --- | --- | --- | --- | --- | --- | --- | --- | --- | --- |
| O=C(O)c1cn(C2CC2)c2cc(N3CCNCC3)c(F)cc2c1=O [CIPROFLOXACIN] | 0.25 µg/mL (≈ 0.754 µM) | 16 µg/mL (≈ 48.3 µM) | 1 µg/mL (≈ 3.02 µM) | 0.03 µg/mL (≈ 0.0905 µM) | 0.03 µg/mL (≈ 0.0905 µM) | 4 µg/mL (≈ 12.1 µM) | – | – | – | – | AUC [1]: 30000 ng·h/mL; Cmax [2]: 3500 ng/mL |
| NC1CCN(c2c(F)cc3c(=O)c(C(=O)O)cn(C4CC4)c3c2Cl)C1 (stereo unspecified) [CLINAFLOXACIN] | 0.03 µg/mL (≈ 0.082 µM) | 0.25 µg/mL (≈ 0.683 µM) | 0.06 µg/mL (≈ 0.164 µM) | 0.01 µg/mL (≈ 0.0273 µM) | 0.01 µg/mL (≈ 0.0273 µM) | 0.25 µg/mL (≈ 0.683 µM) | 0.5 µg/mL (≈ 1.37 µM) | 0.12 µg/mL (≈ 0.328 µM) | 0.06 µg/mL (≈ 0.164 µM) | 0.12 µg/mL (≈ 0.328 µM) | fraction unbound [3]: 0.6; half-life [4]: 6 h; Activity (Homo sapiens): > 10%; AUC [5]: 18000 ng·h/mL; Cmax [6]: 1600 ng/mL |
| CCn1cc(C(=O)O)c(=O)c2cc(F)c(N3CCNCC3)nc21 [ENOXACIN] | 2 µg/mL (≈ 6.24 µM) | > 64 µg/mL | > 64 µg/mL | 0.12 µg/mL (≈ 0.375 µM) | 0.25 µg/mL (≈ 0.78 µM) | 8 µg/mL (≈ 25 µM) | > 64 µg/mL | 64 µg/mL (≈ 200 µM) | 2 µg/mL (≈ 6.24 µM) | > 64 µg/mL | half-life [7]: 2 h; fraction unbound [8]: 0.4; AUC [9]: 29000 ng·h/mL; Cmax [10]: 3700 ng/mL |
| CO/N=C1\CN(c2nc3c(cc2F)c(=O)c(C(=O)O)cn3C2CC2)CC1CN (stereo unspecified) [GEMIFLOXACIN] | 0.25 µg/mL (≈ 0.642 µM) | – | 0.06 µg/mL (≈ 0.154 µM) | 0.06 µg/mL (≈ 0.154 µM) | 0.03 µg/mL (≈ 0.077 µM) | 4 µg/mL (≈ 10.3 µM) | 4 µg/mL (≈ 10.3 µM) | 0.03 µg/mL (≈ 0.077 µM) | 0.06 µg/mL (≈ 0.154 µM) | – | half-life [11]: 7 h; Cmax [12]: 1000 ng/mL; AUC [13]: 9000 ng·h/mL; fraction unbound [14]: 0.4 |
| Cc1c(F)c(N2CCNC(C)C2)cc2c1c(=O)c(C(=O)O)cn2C1CC1 (stereo unspecified) [GREPAFLOXACIN] | 0.12 µg/mL (≈ 0.334 µM) | 8 µg/mL (≈ 22.3 µM) | 1 µg/mL (≈ 2.78 µM) | 0.01 µg/mL (≈ 0.0278 µM) | 0.06 µg/mL (≈ 0.167 µM) | 4 µg/mL (≈ 11.1 µM) | 8 µg/mL (≈ 22.3 µM) | 0.25 µg/mL (≈ 0.696 µM) | 0.12 µg/mL (≈ 0.334 µM) | 1 µg/mL (≈ 2.78 µM) | Activity [15]: 0.006%; Activity [16]: 0.5 to 2%; Cmax [17]: 1400 ng/mL; AUC [18]: 14000 ng·h/mL; Activity [19]: > 10%; half-life [20]: 14 h; protein-bound fraction [21]: 0.5; Activity [22]: 2.9% |
| C[C@H]1COc2c(N3CCN(C)CC3)c(F)cc3c(=O)c(C(=O)O)cn1c23.C[C@H]1COc2c(N3CCN(C)CC3)c(F)cc3c(=O)c(C(=O)O)cn1c23.O [LEVOFLOXACIN] | – | – | – | – | – | – | – | – | – | – | Activity [16]: 0.5 to 2%; Activity [23]: 0.026% |
| COc1c(N2C[C@@H]3CCCN[C@@H]3C2)c(F)cc2c(=O)c(C(=O)O)cn(C3CC3)c12 [MOXIFLOXACIN] | 0.12 µg/mL (≈ 0.299 µM) | – | – | 0.06 µg/mL (≈ 0.149 µM) | 0.06 µg/mL (≈ 0.149 µM) | 2 µg/mL (≈ 4.98 µM) | 8 µg/mL (≈ 19.9 µM) | – | 0.06 µg/mL (≈ 0.149 µM) | – | Cmax [24]: 3100 ng/mL; AUC [25]: 30000 ng·h/mL |
| CCn1cc(C(=O)O)c(=O)c2ccc(C)nc21 [NALIDIXIC ACID] | 16 µg/mL (≈ 68.9 µM) | > 64 µg/mL | > 64 µg/mL | 2 µg/mL (≈ 8.61 µM) | 8 µg/mL (≈ 34.4 µM) | > 64 µg/mL | > 64 µg/mL | > 64 µg/mL | > 64 µg/mL | > 64 µg/mL | half-life [26]: 1.5 h |
| CC1CN(c2cc3c(cc2F)c(=O)c(C(=O)O)cn3-c2ccc(F)cc2F)CCN1 (stereo unspecified) [TEMAFLOXACIN] | – | – | – | – | – | – | – | – | – | – | Activity [27]: 0.02%; hemolysis [28]: 0.02%; Activity [29]: 0.02% |
| N[C@@H]1[C@H]2CN(c3nc4c(cc3F)c(=O)c(C(=O)O)cn4-c3ccc(F)cc3F)C[C@@H]12 [TROVAFLOXACIN] | – | – | – | 0.01 µg/mL (≈ 0.024 µM) | 0.06 µg/mL (≈ 0.144 µM) | 1 µg/mL (≈ 2.4 µM) | 1 µg/mL (≈ 2.4 µM) | 0.12 µg/mL (≈ 0.288 µM) | 0.03 µg/mL (≈ 0.0721 µM) | – | Activity [15]: 12 to 16%; Activity [30]: 2 to 11%; AUC [31]: 40000 ng·h/mL; Cmax [32]: 2500 ng/mL |
